Measured values published in PMC7006954 (Journal of medicinal chemistry, 2016).

Molecular target: T1, human CD4 (CD4-YFP) expression in CHO•CD4-YFP cells (Homo sapiens, UniProt P01730)
Assay: not given
Conditions: read-out: IC50 (CD4 down-modulation); cited from earlier work

Row | Structure (SMILES) | IC50 [nM]
1 | C=C1CN(S(=O)(=O)c2ccc(C)cc2)CCCN(Cc2ccccc2)CCCN(S(=O)(=O)c2ccc(C)cc2)C1 [CADA, Cyclotriazadisulfonamide] | 400

Molecular target: T1, human CD4 (CD4-YFP) expression in CHO•CD4-YFP cells
Assay: CD4 down-modulation in CHO cells stably expressing CD4-YFP
Format: cell-based
Conditions: 50 μM compound, CD4-YFP transfected CHO cells, 24 h

Row | Structure (SMILES) | percentage CD4 down-modulation measured at highest (50 μM) compound concentration [%]
2 | C=C1CN(C(=O)c2ccc(N)cc2)CCCN(Cc2ccccc2)CCCN(S(=O)(=O)c2ccc(C)cc2)C1.Cl [Compound 62] | 15

Same assay, conditions: read-out: IC50 CD4 (μM) mean ± SD; 50% down-modulation of CD4 expression, CD4-YFP transfected CHO cells, 24 h drug treatment; n ≥ 3; benzyl-tailed compounds

Row | Structure (SMILES) | DC50 [µM]
3 | C=C1CN(S(=O)(=O)c2ccccc2)CCCN(Cc2ccccc2)CCCN(S(=O)(=O)c2ccc(C)cc2)C1 [Compound 25, 1-(benzenesulfonyl)-9-benzyl-3-methylene-5-(p-toluenesulfonyl)-1,5,9-triazacyclododecane] | 1.46 ± 0.05
4 | C=C1CN(S(=O)(=O)c2ccc(C)cc2)CCCN(Cc2ccccc2)CCCN(S(=O)(=O)c2ccc3ccccc3c2)C1 [Compound 26] | 0.55 ± 0.17
5 | C=C1CN(S(=O)(=O)c2ccc(C)cc2)CCCN(Cc2ccccc2)CCCN(S(=O)(=O)c2ccc([N+](=O)[O-])cc2)C1 [Compound 27] | 5.25 ± 1.1
6 | C=C1CN(S(=O)(=O)c2ccc(C)cc2)CCCN(Cc2ccccc2)CCCN(S(=O)(=O)c2ccccc2[N+](=O)[O-])C1 [Compound 28] | 0.7 ± 0.09
7 | C=C1CN(S(=O)(=O)c2ccc(C)cc2)CCCN(Cc2ccccc2)CCCN(S(=O)(=O)c2ccc(OC(F)(F)F)cc2)C1 [Compound 29] | 1.2 ± 0.01
8 | C=C1CN(S(=O)(=O)c2ccc(C)cc2)CCCN(Cc2ccccc2)CCCN(S(=O)(=O)c2ccc(OC)cc2OC)C1 [Compound 30] | 1.35 ± 0.3
9 | C=C1CN(S(=O)(=O)c2ccc(C)cc2)CCCN(Cc2ccccc2)CCCN(S(=O)(=O)c2ccc(OC)c(OC)c2)C1 [Compound 31] | 0.31 ± 0.06
10 | C=C1CN(S(=O)(=O)c2ccc(C)cc2)CCCN(Cc2ccccc2)CCCN(S(=O)(=O)c2ccc(N(C)C)cc2)C1 [Compound 32] | 0.17 ± 0.08
11 | C=C1CN(S(=O)(=O)c2ccc(C)cc2)CCCN(Cc2ccccc2)CCCN(S(=O)(=O)c2ccc3c(c2)OCO3)C1 [Compound 33] | 1.06 ± 0.12
12 | C=C1CN(S(=O)(=O)c2ccc(C)cc2)CCCN(Cc2ccccc2)CCCN(S(=O)(=O)c2cccc([N+](=O)[O-])c2)C1 [Compound 34] | 2.02 ± 0.29
13 | C=C1CN(S(=O)(=O)c2ccc(C)cc2)CCCN(Cc2ccccc2)CCCN(S(=O)(=O)N(C)C)C1 [Compound 35] | 1.58 ± 0.2
14 | C=C1CN(S(=O)(=O)c2ccc(C)cc2)CCCN(Cc2ccccc2)CCCN(S(=O)(=O)c2ccn(C)c2)C1 [Compound 36] | 3.17 ± 0.64
15 | C=C1CN(S(=O)(=O)c2ccc(C)cc2)CCCN(Cc2ccccc2)CCCN(S(=O)(=O)c2ccc(F)cc2)C1 [Compound 37] | 0.92 ± 0.11
16 | C=C1CN(S(=O)(=O)c2ccc(C)cc2)CCCN(Cc2ccccc2)CCCN(S(=O)(=O)c2cccc(N(C)C)c2)C1 [Compound 38] | 0.79 ± 0.1
17 | C=C1CN(S(=O)(=O)c2ccc(C)cc2)CCCN(Cc2ccccc2)CCCN(S(=O)(=O)c2ccc(SC)cc2)C1 [Compound 41, 9-Benzyl-3-methylene-1-(p-thiomethoxybenzenesulfonyl)-5-(p-toluenesulfonyl)-1,5,9-triazacyclododecane] | 0.23 ± 0.05
18 | C=C1CN(S(=O)(=O)c2ccc(C)cc2)CCCN(Cc2ccccc2)CCCN(S(=O)(=O)c2ccccc2N)C1 [Compound 43] | 2.12 ± 0.39
19 | C=C1CN(S(=O)(=O)c2ccc(C)cc2)CCCN(Cc2ccccc2)CCCN(S(=O)(=O)c2cccc(N)c2)C1 [Compound 44] | 1.02 ± 0.09
20 | C=C1CN(S(=O)(=O)c2ccc(C)cc2)CCCN(Cc2ccccc2)CCCN(S(=O)(=O)c2ccc(N)cc2)C1 [Compound 45] | 2.42 ± 0.42
21 | C=C1CNCCCN(Cc2ccccc2)CCCN(S(=O)(=O)c2ccc(C)cc2)C1 [Compound 49, 9-Benzyl-3-methylene-1-(p-toluenesulfonyl)-1,5,9-triazacyclododecane] | > 50
22 | C=C1CN(S(=O)(=O)c2ccc(C)cc2)CCCN(Cc2ccccc2)CCCN(S(=O)(=O)c2ccc(OC)cc2)C1 [Compound 50, reference compound] | 0.29 ± 0.09
23 | C=C1CN(S(=O)(=O)c2ccc(C)cc2)CCCN(Cc2ccccc2)CCCN(S(=O)(=O)c2ccc(O)cc2)C1 [Compound 55] | 3.58 ± 0.54
24 | C#CCOc1ccc(S(=O)(=O)N2CCCN(Cc3ccccc3)CCCN(S(=O)(=O)c3ccc(C)cc3)CC(=C)C2)cc1 [Compound 56] | 0.46 ± 0.07
25 | C=C1CN(S(=O)(=O)c2ccc(C)cc2)CCCN(Cc2ccccc2)CCCN(S(=O)(=O)c2ccc(OC(=S)N(C)C)cc2)C1 [Compound 57] | 6.28 ± 2.04
26 | C=C1CN(C(=O)c2ccc(OC)cc2)CCCN(Cc2ccccc2)CCCN(S(=O)(=O)c2ccc(C)cc2)C1 [Compound 58, 9-benzyl-3-methylene-5-(p-methoxybenzoyl)-1-(p-toluenesulfonyl)-1,5,9-triazacyclododecane] | 4.22 ± 0.84
27 | C=C1CN(C(=O)c2ccc(C)cc2)CCCN(Cc2ccccc2)CCCN(S(=O)(=O)c2ccc(C)cc2)C1 [Compound 59] | 3.78 ± 2.38
28 | C=C1CN(C(=O)c2ccc([N+](=O)[O-])cc2)CCCN(Cc2ccccc2)CCCN(S(=O)(=O)c2ccc(C)cc2)C1 [Compound 60] | > 50
29 | C=C1CN(C(=O)c2ccccc2)CCCN(Cc2ccccc2)CCCN(S(=O)(=O)c2ccc(C)cc2)C1 [Compound 61] | 7.32 ± 1.7
30 | C=C1CN(C(=O)c2ccc(N)cc2)CCCN(Cc2ccccc2)CCCN(S(=O)(=O)c2ccc(C)cc2)C1.Cl [Compound 62] | > 50
31 | C=C1CN(S(=O)(=O)c2ccc(C)cc2)CCCN(Cc2ccccc2)CCCN(S(=O)(=O)N2CCOCC2)C1 [Compound 63] | 1.08 ± 0.1

Same assay, conditions: read-out: IC50 CD4 (μM) mean ± SD; 50% down-modulation of CD4 expression, stably CD4-YFP transfected CHO cells, 24 h drug treatment; n = 3; cyclohexylmethyl-tailed compounds

Row | Structure (SMILES) | DC50 [µM]
32 | C=C1CN(S(=O)(=O)c2ccc(C)cc2)CCCN(CC2CCCCC2)CCCN(S(=O)(=O)c2ccc(OC)cc2)C1 [Compound 1, reference compound] | 0.15 ± 0.01
33 | C=C1CN(S(=O)(=O)c2ccc(C)cc2)CCCN(CC2CCCCC2)CCCN(S(=O)(=O)c2ccc(OCCCC)cc2)C1 [Compound 39, 1-(p-Butoxybenzenesulfonyl)-9-cyclohexylmethyl-3-methylene-5-(p-toluenesulfonyl)-1,5,9-triazacyclododecane] | 1.1 ± 0.13
34 | C=C1CN(S(=O)(=O)c2ccc(C)cc2)CCCN(CC2CCCCC2)CCCN(S(=O)(=O)c2ccc(N(C)C)cc2)C1 [Compound 40, 9-Cyclohexylmethyl-1-(p-(dimethylamino)benzenesulfonyl)-3-methylene-5-(p-toluenesulfonyl)-1,5,9-triazacyclododecane] | 0.063 ± 0.005
35 | C=C1CN(S(=O)(=O)c2ccc(C)cc2)CCCN(CC2CCCCC2)CCCN(S(=O)(=O)c2ccc(N)cc2)C1 [Compound 46] | 1 ± 0.15
36 | C=C1CN(S(=O)(=O)c2ccc(C)cc2)CCCN(CC2CCCCC2)CCCN(S(=O)(=O)c2ccc(-n3cccc3)cc2)C1 [Compound 47] | 0.18 ± 0.01
37 | C=C1CN(S(=O)(=O)c2ccc(C)cc2)CCCN(CC2CCCCC2)CCCN(S(=O)(=O)c2ccc(N3CCOCC3)cc2)C1 [Compound 48] | 0.13 ± 0.01
38 | C=C1CN(S(=O)(=O)c2ccc(C)cc2)CCCN(CC2CCCCC2)CCCN(S(=O)(=O)c2ccc(O)cc2)C1 [Compound 51, 9-Cyclohexylmethyl-1-(p-hydroxybenzenesulfonyl)-3-methylene-5-(p-toluenesulfonyl)-1,5,9-triazacyclododecane] | 1.14 ± 0.02
39 | C=C1CN(S(=O)(=O)c2ccc(C)cc2)CCCN(CC2CCCCC2)CCCN(S(=O)(=O)c2ccc(OCC)cc2)C1 [Compound 52] | 0.19 ± 0.01
40 | C=C1CN(S(=O)(=O)c2ccc(C)cc2)CCCN(CC2CCCCC2)CCCN(S(=O)(=O)c2ccc(OCCCN3C(=O)c4ccccc4C3=O)cc2)C1 [Compound 53] | 0.75 ± 0.06
41 | C=C1CN(S(=O)(=O)c2ccc(C)cc2)CCCN(CC2CCCCC2)CCCN(S(=O)(=O)c2ccc(OCCCN)cc2)C1 [Compound 54] | > 50
